Experimental data: patent US20240261258A1, “Presurgical Perineural Administration of Resiniferatoxin For Reduction of Post-Operative Pain” (Sorrento Therapeutics, Inc., priority 2021, published 2024)

Tested on: SP nerve axons of sciatic and femoral nerves
Assay: Quantification of SP immunopositive nerve fibers
Format: in vivo, dog
Details: for Density of SP nerve axons in the ipsilateral femoral nerve: not statistically significant
Experimental: FIGS. 2A-J show density of SP nerve axons in representative confocal images of ipsilateral (left; A-D) and contralateral (right; E-H) sciatic nerve from dogs post-TPLO and after different treatment and doses of RTX. Each bar represents the mean±SEM. Data were analyzed by one-way ANOVA followed by Tukey post hoc test; *p<0.05. FIGS. 2I-J are bar graphs of the density of SP nerve axons (density of nerve fibers in mm/mm3) in ipsilateral (I), and contralateral (J) sciatic nerves as measured in n subjects in each group.
FIGS. 4A-J show the density of SP-immunoreactive axons in representative confocal images showing the presence of […] axons from ipsilateral (A-D) and contralateral (E-H) canine femoral nerves from dogs post-TPLO and after treatment of RTX. Each bar represents the mean±SEM. FIGS. 4I-J are bar graphs of the density of SP nerve axons (density of nerve fibers in mm/mm3) in ipsilateral (I), and contralateral (J) femoral nerves as measured in n subjects in each group.
FIG. 4 illustrates the effect of RTX on SP density in nerve fibers innervating the ipsilateral (FIG. 4A-D) and contralateral (FIG. 4E-H) femoral nerves from dogs post-TPLO.

SMILES: C=C(C)[C@]12C[C@@H](C)[C@@]34O[C@](Cc5ccccc5)(O[C@@H]1[C@@H]3C=C(COC(=O)Cc1ccc(O)c(OC)c1)C[C@]1(O)C(=O)C(C)=C[C@@H]41)O2 [RTX, resiniferatoxin]
- Density of SP nerve axons in the contralateral sciatic nerve vs control treatment (RTX treated groups, p=0.9122, p=0.9995, p=0.9971): did not affect
- Density of SP nerve axons in the contralateral femoral nerve (RTX treatment, p=0.9907, p=0.8812, p=0.9066): did not have an effect
- Density of SP axons of the ipsilateral sciatic nerve vs control treatment (local administration (50 μg), p=0.0155): statistically significant reduction
- Density of SP axons of the ipsilateral sciatic nerve vs control treatment (peri-neural 3.12 μg per nerve (6.25 μg total), p=0.0335): statistically significant reduction
- Density of SP nerve axons in the ipsilateral femoral nerve (peri-neural 3.12 μg per nerve, p=0.8519): marked trend in reducing density
- Density of SP axons of the ipsilateral sciatic nerve vs control treatment (peri-neural 12.5 μg per nerve (25 μg total), p=0.0112): statistically significant reduction
- Density of SP nerve axons in the ipsilateral femoral nerve (peri-neural 12.5 μg per nerve, p=0.1216): marked trend in reducing density
